Measurements reported in US12036224B2, “Formulations, methods, kits, and dosage forms for treating atopic dermatitis and for improved stability of an active pharmaceutical ingredient” (Libertas Bio, Inc., priority 2017, dated 2024).

Test system: IL-17-SYK mediated CCL20 release, human keratinocytes
Test: Inhibition of IL17 mediated CCL20 release in keratinocytes
Type: cell-based
Settings: single donor, n=3
Procedure: In FIG. 12, each bar represents mean and SEM for 3 replicates (n=3) of a single donor. FIG. 13 is a graph showing average weekly change in pruritus (NRS) for a placebo, and Compound 1 in the doses of 20 mg, 40 mg and 80 mg.

Question: `COc1cc(Nc2ncc(F)c(Nc3ccc4c(n3)NC(=O)C(C)(C)O4)n2)cc(OC)c1OC` [Tamatinib, reference compound] was tested. Which “inhibition of IL-17-SYK mediated CCL20 release” value did it give?
Answer: unlike Tamatinib and Tofacitinib, Compound 1 inhibits
